Laboratory results as given in patent publication US4680382A, “Analogues of actinomycin D” (priority 1986, dated 1987).
*1 amine or outer side, *2 acyl side, *3 side chain or, on linkers, in order; H or OH if unused. Where a SMILES comes first, the peptide text is derived from it. Bridges are numbered along the chain shown (N, C = ends). Roman numbers before positions name the chains, in order. [ ]: non-standard residue; d: D form. Actinocin(9to1) = Cc1c2oc3c(C)ccc(C(=O)[*:1])c3nc-2c(C(=O)[*:2])c(N)c1=O; NMeV = CN[C@H](C(=O)O)C(C)C; Sar = CNCC(=O)O

System: P388/ADR
Assay: In vivo activity against P388/adriamycin-resistant leukemia
Parameters: species or system BDF1 mice
Conditions: for P388/ADR optimal dose: ip, days 1, 5 and 9
Method: ^a Male BDF1 mice inoculated ip: 10^6 cells inoculum, day 0.
Drugs administered in 10% dimethyl sulfoxidesaline on days 1, 5 and 9. %
ILS = percent increase in life span. Fractions in parentheses = tumorfree
survivors/total on day 60. P388/S (adriamycin sensitive) and P388/ADR
(adriamycin resistant) tumors were evaluated in the same experiment with […]

For `Cc1c2oc3c(C)c(O)c(N)c(C(=O)NC4C(=O)NC(C(C)C)C(=O)N5CCCC5C(=O)N(C)CC(=O)N(C)C(C(C)C)C(=O)OC4C)c3nc-2c(C(=O)NC2C(=O)NC(C(C)C)C(=O)N3CCCC3C(=O)N(C)CC(=O)N(C)C(C(C)C)C(=O)OC2C)c(N)c1=O` (centres unmarked) [4a, 7-Hydroxy-8-amino-actinomycin D], the “P388/ADR % ILS” value (at optimal dose) was 176%, the “P388/ADR tumor-free survivors/total on day 60” value (at optimal dose) was 3/8 and the P388/ADR optimal dose was 1.2 mg/kg.
`Cc1c2oc3c(C)ccc(C(=O)N[C@@H]4C(=O)N[C@H](C(C)C)C(=O)N5CCC[C@H]5C(=O)N(C)CC(=O)N(C)[C@@H](C(C)C)C(=O)O[C@@H]4C)c3nc-2c(C(=O)N[C@@H]2C(=O)N[C@H](C(C)C)C(=O)N3CCC[C@H]3C(=O)N(C)CC(=O)N(C)[C@@H](C(C)C)C(=O)O[C@@H]2C)c(N)c1=O` [AMD, Actinomycin D] (I: T[dV]P[Sar][NMeV] / II: T[dV]P[Sar][NMeV]; ester I:1-I:C, II:1-II:C; linker I:N-II:N via Actinocin(9to1)) was tested, and the “P388/ADR % ILS” value (at optimal dose) was 22% and the P388/ADR optimal dose was 0.25 mg/kg.
